This note sets out measurements from PubChem BioAssay (NCI).

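Five compound concentrations were applied to cells in 96-well plates for 48 hours; endpoints were derived by simple linear interpolation of the resulting dose-response curve. Abbreviation: GI50, concentration required for 50% inhibition of growth. TGI is the concentration that stops growth completely.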 Bounds are passed on as bounds.

Among the test systems are SF-539 CNS; U251 CNS; K-562 leukemia; MDA-MB-231 breast; UACC-62 melanoma; A498 renal; SW-620 colon; NCI/ADR-RES ovarian.
Holding throughout (experiment): growth of human tumour cells (NCI), 48 h

Consider `O=C(Cc1ccc(Nc2ccnc(C(F)(F)F)c2)cc1)N/N=C/c1ccccc1O`, for which the GI50 is 2.44 µM in the test with SF-539 CNS; 1.87 µM in the test with U251 CNS; 2.74 µM in the test with K-562 leukemia; 2.55 µM with MDA-MB-231 breast; 2.17 µM with UACC-62 melanoma; 11.2 µM in the test with A498 renal. Also, the values for the GI50 in the test with SW-620 colon and with NCI/ADR-RES ovarian were 3.02 µM and 2.83 µM, respectively. The TGI in the test on SF-539 CNS is 12.2 µM; in the test on U251 CNS it was greater than 54.8 µM; in the test on K-562 leukemia it was 20.1 µM; with MDA-MB-231 breast, greater than 74.9 µM; in the test on UACC-62 melanoma it was 21.5 µM; with A498 renal, greater than 57.9 µM. The TGI with SW-620 colon was determined as 17 µM; with NCI/ADR-RES ovarian, 33 µM.
In the case of `Cn1c(NCC(CN2CCCC2)OC(=O)c2ccccc2)cc(=O)n(C)c1=O` (centres undefined), the GI50 in the test with SF-539 CNS, in the test with U251 CNS, in the test on K-562 leukemia, in the test with MDA-MB-231 breast, in the test on UACC-62 melanoma and in the test with A498 renal was greater than 100 µM throughout. Further, the GI50 with SW-620 colon and with NCI/ADR-RES ovarian was greater than 100 µM in each case. The TGI with SF-539 CNS, with U251 CNS, with K-562 leukemia, in the test with MDA-MB-231 breast, with UACC-62 melanoma and in the test on A498 renal was greater than 100 µM throughout. Also, the TGI in the test with SW-620 colon and with NCI/ADR-RES ovarian was greater than 100 µM in each case.
Regarding `O=C1/C(=C\c2ccccc2)CN(C(=O)c2ccccc2)C/C1=C\c1ccccc1`, the GI50 is 2.27 µM in the test on SF-539 CNS; 1.92 µM in the test on U251 CNS; 1.67 µM with K-562 leukemia; 2.2 µM in the test on MDA-MB-231 breast; 1.69 µM in the test with UACC-62 melanoma; 13 µM with A498 renal. In addition, the GI50 is 1.47 µM in the test with SW-620 colon and 3.69 µM with NCI/ADR-RES ovarian. Besides, the TGI in the test with SF-539 CNS was 6.24 µM; in the test with U251 CNS, 4.44 µM; in the test on K-562 leukemia, greater than 100 µM; with MDA-MB-231 breast, 5.02 µM; with UACC-62 melanoma, 3.42 µM; in the test with A498 renal, 27.4 µM. In addition, the TGI amounted to 3.04 µM with SW-620 colon and 37.6 µM in the test with NCI/ADR-RES ovarian.
Take `CCCOc1ccc(/C=N/Nc2cc(C)nc3ccc(Cl)cc23)cc1`: the GI50 was 1.79 µM in the test with SF-539 CNS; 2.05 µM with U251 CNS; 1.48 µM in the test on K-562 leukemia; 1.85 µM in the test on MDA-MB-231 breast; 1.76 µM in the test with UACC-62 melanoma; 1.72 µM with A498 renal. Also, the GI50 is 1.96 µM with SW-620 colon and 1.9 µM in the test with NCI/ADR-RES ovarian. Besides, the TGI with SF-539 CNS turned out to be 3.2 µM; in the test on U251 CNS, 3.55 µM; with K-562 leukemia, 3.13 µM; in the test on MDA-MB-231 breast it was 3.49 µM; in the test with UACC-62 melanoma it was 3.24 µM; in the test on A498 renal it was 3.16 µM. In addition, the TGI was found to be 3.79 µM with SW-620 colon and 3.81 µM in the test on NCI/ADR-RES ovarian.
With `Oc1ccc(Cc2ccc(O)c(C3CC(c4ccc(Cl)cc4)=NN3)c2)cc1C1CC(c2ccc(Cl)cc2)=NN1` (centres undefined), the GI50 in the test with SF-539 CNS was 4.69 µM; with U251 CNS, 2.06 µM; in the test on K-562 leukemia it was 2.51 µM; in the test with MDA-MB-231 breast, 2.49 µM; in the test with UACC-62 melanoma, 3.14 µM; in the test with A498 renal, 0.59 µM. The GI50 with SW-620 colon is 3.23 µM; in the test on NCI/ADR-RES ovarian it was 2.54 µM. Besides, the TGI with SF-539 CNS is greater than 40.2 µM; in the test on U251 CNS it was 33.6 µM; in the test on K-562 leukemia it was greater than 100 µM; in the test with MDA-MB-231 breast, 8.94 µM; in the test on UACC-62 melanoma it was 13.4 µM; in the test on A498 renal, greater than 34.3 µM. The TGI in the test on SW-620 colon is 16 µM; in the test on NCI/ADR-RES ovarian, greater than 34.5 µM.
Turning to `FC(F)(F)c1cc(-c2ncn(/C=C\c3nnco3)n2)cc(C(F)(F)F)c1`, the GI50 was 0.0197 µM in the test with SF-539 CNS; 0.0402 µM in the test with U251 CNS; 0.06 µM in the test on K-562 leukemia; 0.132 µM in the test with MDA-MB-231 breast; 0.189 µM with UACC-62 melanoma; less than 0.0128 µM in the test with A498 renal. Besides, the results for the GI50 with SW-620 colon and in the test with NCI/ADR-RES ovarian were 0.0536 µM and 0.304 µM, respectively. Besides, the TGI with SF-539 CNS was 0.0744 µM; in the test on U251 CNS, 15.6 µM; in the test with K-562 leukemia, greater than 42.2 µM; in the test with MDA-MB-231 breast, greater than 73.9 µM; in the test on UACC-62 melanoma, 6.76 µM; with A498 renal, 0.0639 µM. Also, the results for the TGI in the test with SW-620 colon and in the test with NCI/ADR-RES ovarian were greater than 43.1 µM and greater than 63.5 µM, respectively.
In the case of `NC(=O)CCc1ccccc1Oc1nccc(-c2c(-c3ccc(F)cc3)ncn2C2CCNCC2)n1`, the GI50 in the test with SF-539 CNS, in the test on U251 CNS, in the test on K-562 leukemia, in the test with MDA-MB-231 breast, with UACC-62 melanoma and in the test on A498 renal was greater than 25 µM throughout. Besides, the GI50 in the test on SW-620 colon and in the test with NCI/ADR-RES ovarian was greater than 25 µM throughout. Further, the TGI in the test with SF-539 CNS, with U251 CNS, in the test with K-562 leukemia, with MDA-MB-231 breast, in the test on UACC-62 melanoma and with A498 renal was greater than 25 µM throughout. Also, the TGI in the test on SW-620 colon and with NCI/ADR-RES ovarian was greater than 25 µM each time.
Turning to `C=C(CN1CCN(c2ccccc2C(F)(F)F)CC1)c1ccc(C(=O)Nc2ccccc2N)cc1`, the GI50 in the test on SF-539 CNS is 3.27 µM; in the test on U251 CNS it was 4.64 µM; with K-562 leukemia it was 1.54 µM; in the test on MDA-MB-231 breast, 4.68 µM; in the test on UACC-62 melanoma, 9.16 µM; in the test on A498 renal it was 5.36 µM. Also, the GI50 is 3.4 µM in the test with SW-620 colon and 2.01 µM with NCI/ADR-RES ovarian. For the same compound, the TGI with SF-539 CNS was 41.7 µM; with U251 CNS, greater than 68.1 µM; with K-562 leukemia, greater than 25.8 µM; in the test with MDA-MB-231 breast, greater than 56.1 µM; with UACC-62 melanoma, greater than 93.7 µM; in the test with A498 renal, 31.8 µM. Moreover, the TGI was greater than 65.9 µM in the test with SW-620 colon and 10.5 µM in the test with NCI/ADR-RES ovarian.
Regarding `O=Cc1ccc(-c2ccc(-c3ccc(C=O)o3)[se]2)o1`, the GI50 in the test with SF-539 CNS was greater than 100 µM; in the test on U251 CNS, 44.8 µM; with K-562 leukemia it was greater than 100 µM; with MDA-MB-231 breast, 54 µM; in the test on UACC-62 melanoma, greater than 100 µM; in the test on A498 renal, 0.302 µM. Moreover, the GI50 with SW-620 colon and with NCI/ADR-RES ovarian was greater than 100 µM each time. The TGI with SF-539 CNS is greater than 100 µM; with U251 CNS it was greater than 100 µM; in the test with K-562 leukemia it was greater than 100 µM; with MDA-MB-231 breast it was greater than 100 µM; in the test with UACC-62 melanoma, greater than 100 µM; in the test on A498 renal it was 10.5 µM. The TGI in the test with SW-620 colon and in the test with NCI/ADR-RES ovarian was greater than 100 µM each time.
